# Measurements as given in PMC3369547, “Antimicrobial Constituents of Artemisia afra Jacq. ex Willd. against Periodontal Pathogens” (Evidence-based Complementary and Alternative Medicine : eCAM, 2012).
# Where two headings read alike, the source gives them in different places. *1 amine or outer side, *2 acyl side, *3 side chain or, on linkers, in order; H or OH if unused. Where a SMILES comes first, the peptide text is derived from it. Bridges are numbered along the chain shown (N, C = ends). Roman numbers before positions name the chains, in order. [ ]: non-standard residue; d: D form. Actinocin(9to1) = Cc1c2oc3c(C)ccc(C(=O)[*:1])c3nc-2c(C(=O)[*:2])c(N)c1=O; NMeV = CN[C@H](C(=O)O)C(C)C; Sar = CNCC(=O)O
# How the values were obtained:
# [1] = XTT cell proliferation (cytotoxicity) assay on McCoy cells; type: cell-based; details: mouse; McCoy cells, XTT, 48 h; read-out: IC50 (cytotoxicity)
# Procedure: Extract and compounds were dissolved in dimethyl sulfoxide (DMSO) and stored at −20°C. All tested compounds were diluted to the final concentration with RPMI 1640 and control cultures were diluted with 0.1% DMSO.
# McCoy cells were maintained in monolayer culture at 37°C and 5% CO2 with 10% […] Medium, 10 μg/mL of penicillin, 10 μg/mL, streptomycin, 40 μg/mL gentamycin, and 0.25 μg/mL fungizone.
# A microtiter plate with McCoy cells was used for testing all the ethanol extracts for cytotoxicity following the method of [26]. Cytotoxicity was measured by the XTT (sodium 3′-[1-(phenyl amino-carbonyl)-3,4-tetrazolium]-bis-[4-methoxy-6-nitro] benzene sulfonic acid hydrate) method using a cell proliferation kit II (Roche Diagnostics GmbH). Hundred microlitres of McCoy cells (1 × 10^5 mL) was seeded onto a microtiter plate and incubated for 24 h to allow the cells to attach to the bottom of the plate. Dilution series were made of the extract and compound and the various concentrations (400 to 3.1 μg/mL) were added to the microtitre plate and incubated for 48 h. The XTT reagents were added to a final concentration of 0.3 mg/mL and the cells were incubated for 1-2 hours. The positive drug control (Zearalenone) at concentrations range of (10 μg/mL to 0.6 μg/mL) was included in the assay. After incubation the absorbance of the colour was spectrophotometrically quantified using an ELISA plate reader, which measured the optical density at 490 nm with a reference wavelength of 690 nm. The assay was carried out in triplicate.
# [2] = tested on: Aggregatibacter actinomycetemcomitans (ATCC 33384); assay: Microdilution MIC/MMC (INT) against Aggregatibacter actinomycetemcomitans; type: cell-based; details: A.a, Gram –ve, table title says mg/mL; for MBC: MMC in title
# Procedure: (§1) The microorganisms used in this study include Actinomyces naeslundii (ATCC 19039), Actinomyces israelii (ATCC 10049), Aggregatibacter actinomycetemcomitans (ATCC 33384), Candida albicans (Med I), Porphyromonas gingivalis (ATCC 33277), Prevotella intermedia (ATCC 25611), and Streptococcus mutans (ATCC 25175). Bacteria were grown in the Casein-peptone Soy Agar medium (CASO) (Merck SA (Pty) Ltd.) under anaerobic conditions in a jar with anaerocult A (Merck SA (Pty) Ltd.), at 37°C for 48 hours. Sabouraud Dextrose Agar medium (SDA) (Merck SA (Pty) Ltd.) was used for the culturing of Candida albicans and incubated at 37°C for 24 hours under aerobic conditions. Subculturing was done once weekly.
# (§2) The microdilution technique using 96-well microplates was used to obtain the MIC and MMC values of the crude extract against microorganisms under study. The extract was serially diluted in the 96-well plate with 48 hours old microorganisms (5 × 10^6 CFU/mL) grown at 37°C and the final concentration of extract and positive control (CHX) ranged from 25.0 mg/mL to 0.8 mg/mL. Microbial growth was indicated by adding 40 μL of (0.2 mg/mL) p-iodonitrotetrazolium violet (INT) (Sigma-Aldrich, South Africa) to microplate wells and incubated at 37°C for 48 hours. MIC was defined as the lowest concentration that inhibited the colour change of INT. […] These suspensions were reincubated at 37°C for 48 hours. The MMC was determined as the lowest concentration of extract which inhibited 100% growth of microorganisms.
# [3] = tested on: Prevotella intermedia (ATCC 25611); assay: Microdilution MIC/MMC (INT) against Prevotella intermedia; type: cell-based; details: P.i, Gram –ve, table title says mg/mL; for MBC: MMC in title
# Procedure: as §1, §2
# [4] = tested on: Candida albicans (Med I); assay: Microdilution MIC/MMC (INT) against Candida albicans; type: cell-based; details: C.a, Yeast, table title says mg/mL; for MBC: MMC in title
# Procedure: as §1, §2
# [5] = tested on: Actinomyces israelii (ATCC 10049); assay: Microdilution MIC/MMC (INT) against Actinomyces israelii; type: cell-based; details: A.i, Gram +ve, table title says mg/mL; for MBC: MMC in title
# Procedure: as §1, §2
# [6] = tested on: Actinomyces naeslundii (ATCC 19039); assay: Microdilution MIC/MMC (INT) against Actinomyces naeslundii; type: cell-based; details: A.n, Gram +ve, table title says mg/mL; for MBC: MMC in title
# Procedure: as §1, §2
# [7] = tested on: Porphyromonas gingivalis (ATCC 33277); assay: Microdilution MIC/MMC (INT) against Porphyromonas gingivalis; type: cell-based; details: P.g, Gram –ve, table title says mg/mL; for MBC: MMC in title
# Procedure: as §1, §2
# [8] = DPPH free radical scavenging assay; type: biochemical; details: 37°C, 30 min, 517 nm
# Procedure: The free radical scavenging activity was measured using 1, 1 diphenyl-2-picryl-hydraxyl (DPPH) assay with slight modifications. The ethanol extract of A. afra and Vitamin C (positive control) 1000 μg/mL (20 μL) was added in the first three wells of a 96-well plate containing 200 μL of distilled water to make up final concentration of 100 μg/mL and the remaining wells were filled with 110 μL of distilled water. The first raws containing the extract/compounds were serially diluted to wells which contain 110 μL of distilled water, and later, 90 μL of methanolic solution of DPPH ([…]) was added to all the wells. The final concentrations of the extract/compounds ranged from 100 to 0.8 μg/mL. The plates were incubated at 37°C for 30 min and the absorbance was measured at 517 nm using the ELISA plate reader. The percent radical scavenging activity by A. afra was determined by comparison with ethanol (blank). The inhibition ratio was calculated as follows: % DPPH radical-scavenging = (AC-AS)/AC × 100, where AC is absorbance of the control solution (containing only DPPH solution), and AS is the absorbance of the sample in DPPH solution. The percentage of DPPH radical-scavenging was plotted against the plant extract/compounds concentrations (μg/mL) to determine the concentration of extract/compound required to scavenge DPPH by 50% (EC50).
# [9] = tested on: oral microorganisms; assay: Microdilution MIC/MMC, summary over tested microbial species; type: cell-based; details: against A. israelii and A. naeslundii; read-out: lowest MIC and MMC value
# Procedure: as §1, §2
# [10] = tested on: murine melanoma B16 cell line; design: method as in PMID 15363977; details: B16 cells; cited from earlier work
# [11] = Aggregatibacter actinomycetemcomitans, ATCC33384
# [12] = Prevotella intermedia, ATCC25611
# [13] = Prevotella intermedia, ATCC25611, read-out: MIC
# [14] = Actinomyces israelii, ATCC10049, read-out: MBC
# [15] = Actinomyces israelii, ATCC10049, read-out: MIC
# [16] = Actinomyces naeslundii, ATCC19039
# [17] = Porphyromonas gingivalis, ATCC33277
# [18] = Porphyromonas gingivalis, ATCC33277, read-out: MIC
# [19] = Prevotella intermedia, ATCC25611, read-out: MBC
# [20] = Actinomyces israelii, ATCC10049
compound,measurement,setting,value
"Cc1c2oc3c(C)ccc(C(=O)N[C@@H]4C(=O)N[C@H](C(C)C)C(=O)N5CCC[C@H]5C(=O)N(C)CC(=O)N(C)[C@@H](C(C)C)C(=O)O[C@@H]4C)c3nc-2c(C(=O)N[C@@H]2C(=O)N[C@H](C(C)C)C(=O)N3CCC[C@H]3C(=O)N(C)CC(=O)N(C)[C@@H](C(C)C)C(=O)O[C@@H]2C)c(N)c1=O [Actinomycin-D, reference compound] (I: T[dV]P[Sar][NMeV] / II: T[dV]P[Sar][NMeV]; ester I:1-I:C, II:1-II:C; linker I:N-II:N via Actinocin(9to1))",IC50 at 48 h,[1],0.00336 µg/mL
"C[C@H]1[C@H](C)CC[C@]2(C)CC[C@]3(C)C(=CC[C@@H]4[C@@]5(C)CC[C@H](O)C(C)(C)[C@@H]5CC[C@]43C)[C@H]12 [compound 4, α-amyrin]",MBC,[2]; [11],> 1000 µg/mL
same,MIC,[2]; [11],> 1000 µg/mL
same,MBC,[3]; [12],> 1000 µg/mL
same,MIC,[3]; [13],> 1 µg/mL
same,MBC,[4],> 1000 µg/mL
same,MIC,[4],> 1000 µg/mL
same,MBC,[5]; [14],> 1 µg/mL
same,MIC,[5]; [15],> 1 µg/mL
same,MBC,"[6]; Actinomyces naeslundii, ATCC19039, read-out: MBC",> 1 µg/mL
same,MIC,[6]; [16],1000 µg/mL
same,MBC,[7]; [17],> 1000 µg/mL
same,MIC,[7]; [18],> 1 µg/mL
"C=C1C(=O)OC2C1C(OC(C)=O)CC(=C)C1(O)C=CC(C)(O)C21 (stereo not drawn) [compound 2, 12α,4α-dihydroxybishopsolicepolide]",MBC,[2]; [11],> 1000 µg/mL
same,MIC,[2]; [11],> 1000 µg/mL
same,MBC,[3]; [19],1 µg/mL
same,MIC,[3]; [12],1000 µg/mL
same,MBC,[4],> 1000 µg/mL
same,MIC,[4],> 1000 µg/mL
same,MBC,[5]; [20],500 µg/mL
same,MIC,[5]; [20],500 µg/mL
same,MBC,[6]; [16],1000 µg/mL
same,MIC,[6]; [16],500 µg/mL
same,MBC,[7]; [17],> 1000 µg/mL
same,MIC,[7]; [18],> 1 µg/mL
phytol [compound 5],MBC,[2],> 1000 µg/mL
same,MIC,[2],> 1000 µg/mL
same,MBC,[3],> 1000 µg/mL
same,MIC,[3],>1.0 µg/mL
same,MBC,[4],> 1000 µg/mL
same,MIC,[4],> 1000 µg/mL
same,MBC,[5],>1.0 µg/mL
same,MIC,[5],>1.0 µg/mL
same,MBC,[6],>1.0 µg/mL
same,MIC,[6],>1.0 µg/mL
same,MBC,[7],> 1000 µg/mL
same,MIC,[7],>1.0 µg/mL
"C=C(C)[C@@H]1CC[C@]2(C(=O)O)CC[C@]3(C)[C@H](CC[C@@H]4[C@@]5(C)CC[C@H](O)C(C)(C)[C@@H]5CC[C@]43C)[C@@H]12 [compound 6, betulinic acid]",MBC,[2]; [11],> 1000 µg/mL
same,MIC,[2]; [11],> 1000 µg/mL
same,MBC,[3]; [12],> 1000 µg/mL
same,MIC,[3]; [12],1000 µg/mL
same,IC50 at 48 h,[1],31 µg/mL
same,DPPH scavenging IC50,[8],2.42 µg/mL
same,MIC,[9],250 µg/mL
same,MBC,[4],> 1000 µg/mL
same,MIC,[4],> 1000 µg/mL
same,MBC,[5]; [20],1000 µg/mL
same,MIC,[5]; [15],1 µg/mL
same,IC50 apoptotic effects,[10],22.5 µg/mL
same,MBC,[6]; [16],500 µg/mL
same,MIC,"[6]; Actinomyces naeslundii, ATCC19039, read-out: MIC",0.25 µg/mL
same,MBC,[7]; [17],> 1000 µg/mL
same,MIC,[7]; [17],1000 µg/mL
"[H]/N=C(\N/C(=N/[H])NCCCCCCNC(=N)NC(=N)Nc1ccc(Cl)cc1)Nc1ccc(Cl)cc1 [Chlorhexidine, chlorhexidine, reference compound]",MBC,"[2]; Aggregatibacter actinomycetemcomitans, ATCC33384, read-out: MBC",1.6 µg/mL
same,MIC,"[2]; Aggregatibacter actinomycetemcomitans, ATCC33384, read-out: MIC",1.6 µg/mL
same,MBC,[3]; [19],6.3 µg/mL
same,MIC,[3]; [13],6.3 µg/mL
same,MBC,[4]; read-out: MBC,1.25 µg/mL
same,MIC,[4]; read-out: MIC,6.3 µg/mL
same,MBC,[5]; [14],6.3 µg/mL
same,MIC,[5]; [15],6.3 µg/mL
same,MBC,[6]; [16],1600 µg/mL
same,MIC,[6]; [16],1600 µg/mL
same,MBC,"[7]; Porphyromonas gingivalis, ATCC33277, read-out: MBC",1.6 µg/mL
same,MIC,[7]; [17],1600 µg/mL
"O=C1O[C@H]([C@@H](O)CO)C(O)=C1O [vitamin C, reference compound]",DPPH scavenging IC50,[8],1.22 µg/mL
